Results reported in patent US8987316B2, “Isocyanate and isothiocyanate compounds for cancer treatment” (priority 2011, dated 2015).

Experiments:
[1] = system: CXF280 xenograft tumor (colon carcinoma); assay: Dose-dependent anti-tumor activity in the CXF280 colon carcinoma xenograft model; format: in vivo
Procedure: (§1) Breast tumors (MAXF 401) were implanted subcutaneously into the rear members of the mice aged 10 weeks. The increase in the volume of the individual tumors was measured using microcallipers, and the size of the tumor was calculated according to the formula a*b^2/2 (where a is the largest diameter of the tumor and b is the vertical axis). When the tumor volume had increased to 80-120 mm^3, the animals were allocated at random into test groups of in each case 6 animals.
The anti-tumor activity of the compound of Example 2a was thereby determined in the CXF280 xenograft tumor model in the nude mouse. Subcutaneous implantation of the tumor and the determination of tumor volumes were carried out as described hereinbefore. The test substance was administered by ip injection twice weekly in the mentioned doses in the form of the sodium salt as an aqueous solution, over a period of 4 weeks. Groups of in each case 8 animals were used.

MAXF-401 xenograft tumor = assay: Dose-dependent anti-tumor activity in the MAXF-401 xenograft tumor model; format: in vivo
Procedure: as §1
The anti-tumor activity of the substance of Example 2a (sodium salt) was tested in a xenograft tumor panel. Therefore, xenografts of human tumors derived from the mentioned cancers were implanted in nude mice. The implantation and the determination of tumor volumes were carried out as described hereinbefore. Groups of 5 to 8 animals were used. The test compound was administered by ip injection twice weekly in the mentioned doses in the form of the sodium salt as an aqueous solution.
Therein, the anti-tumor activity of the compound of Example 2a (sodium salt) was examined in the MAXF-401 xenograft tumor model in the nude mouse. Subcutaneous implantation of the tumor and the determination of the tumor volume was carried out as described hereinbefore. The test compound was administered by ip injection twice weekly in the mentioned doses in the form of the sodium salt as an aqueous solution over a period of 4 weeks. […] A dose of 100 mg/kg was determined as the threshold dose, ≧200 mg/kg as the ED90 of the anti-tumor activity.

[2] = Necrotic changes in the kidneys of treated animals; format: in vivo, nude mice; details: affected animals/animals
Procedure: (§2) All the tests were carried out using female nude mice under standard conditions for the keeping of animals with controlled illumination and temperature. The animals were given water and food as desired.
No necrotic changes were found in the kidneys of the animals treated with the compound according to the invention. This confirms the excellent tolerability profile of the compounds according to the invention.

Breast tumors (MAXF 401) = assay: Breast tumor MAXF 401 xenograft in nude mice, T/C value and mortality; format: in vivo; details: ip twice weekly over 5 weeks
Procedure: as §2, §1
The test compound (in the form of sodium salts) was dissolved in a saline solution, and 5% Klucel (hydroxypropylcellulose) was added in order to dissolve the test compound in the carrier. The compound was administered by intraperitoneal injection. A volume of 10 ml/kg body weight was injected. […] The tumor volume and the body weight were checked twice weekly, and the relative tumor volumes were calculated as the […]. […]
On the basis of the relative tumor volumes of the animals treated with the test compound compared with the tumor volumes of the controls treated only with the carrier, the T/C values were calculated and were used as the index of anti-tumor activity. […]

[3] = MAXF-401, ip twice weekly over 4 weeks, sodium salt

Q: Which results are given for O=C(O)CCOc1ccc(C(=O)c2ccc(N=C=S)cc2)cc1 [Example 2a]?
A: tumor growth inhibition and remission ([1]; CXF280, dose group of 200 mg/kg and 300 mg/kg): complete inhibition of tumor growth and the induction of remissions to obliteration of the tumor; tolerability ([1]; CXF280, dose range used): well tolerated; weight loss in the animals ([1]; CXF280, dose range used): not associated with a significant weight loss; anti-tumor action ([1]; CXF280, doses of 100, 200 or 300 mg/kg ip twice weekly over 4 weeks): pronounced anti-tumor action; ED90 doses ([1]; CXF280, ip twice weekly over 4 weeks): 200 mg/kg; tolerability (MAXF-401 xenograft tumor; MAXF-401, dose range used): well tolerated; tumor response under therapy (MAXF-401 xenograft tumor; MAXF-401, dose ≧200 mg/kg): remission of the tumors was observed; ED90 of the anti-tumor activity (MAXF-401 xenograft tumor; [3]): ≥ 200 mg/kg; threshold dose of the anti-tumor activity (MAXF-401 xenograft tumor; [3]): 100 mg/kg; Acute single-cell necrosis [2]: 0/9; Focal tubular necrosis [2]: 0/9; T/C value (Breast tumors (MAXF 401); MAXF 401 breast tumor, sodium salt, ratio of tumor size treated/untreated, 100% would be no activity): 1.7; Mortality (Breast tumors (MAXF 401); dead animals/animals in the group): 0/6
